In data set [1] the target is T1, GR (Mus musculus, UniProt P06537).
T1 sequence (P06537 1-792): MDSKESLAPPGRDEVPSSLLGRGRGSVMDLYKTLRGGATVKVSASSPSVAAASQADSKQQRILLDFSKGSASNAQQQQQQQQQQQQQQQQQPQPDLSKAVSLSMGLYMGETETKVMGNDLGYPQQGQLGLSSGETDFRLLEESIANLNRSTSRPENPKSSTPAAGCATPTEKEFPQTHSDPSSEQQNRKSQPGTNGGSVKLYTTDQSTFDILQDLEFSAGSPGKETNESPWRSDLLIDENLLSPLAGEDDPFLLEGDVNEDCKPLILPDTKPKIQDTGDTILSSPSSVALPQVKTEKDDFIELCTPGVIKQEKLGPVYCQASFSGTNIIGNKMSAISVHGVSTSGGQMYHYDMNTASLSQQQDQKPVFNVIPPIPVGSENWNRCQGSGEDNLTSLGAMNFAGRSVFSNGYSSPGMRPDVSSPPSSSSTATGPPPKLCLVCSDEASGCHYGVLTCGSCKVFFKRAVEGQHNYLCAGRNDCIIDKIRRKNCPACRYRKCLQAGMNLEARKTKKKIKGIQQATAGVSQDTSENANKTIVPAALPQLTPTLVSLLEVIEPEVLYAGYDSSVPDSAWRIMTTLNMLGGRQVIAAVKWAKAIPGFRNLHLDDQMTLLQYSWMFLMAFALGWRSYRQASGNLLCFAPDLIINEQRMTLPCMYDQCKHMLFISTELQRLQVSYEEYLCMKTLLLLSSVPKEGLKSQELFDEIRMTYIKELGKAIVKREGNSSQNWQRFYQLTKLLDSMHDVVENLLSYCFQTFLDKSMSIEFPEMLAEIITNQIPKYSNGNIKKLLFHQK
In words: 18F-YJH08 PET/CT in adipocyte specific GR knockout mice. As to conditions: vs wild type litter mate, supraspinal and scapular brown fat depots. The class given is in vivo.

Data set [2] can be described thus: Biodistribution study post mortem. As to conditions: C57Bl6/J mice, mean ± SD. It is filed as in vivo.
Data set [3] has as its target T1, GR. In words: 18F-YJH08 uptake in adrenalectomized mice.
Data set [4] in a line: Determination of partition coefficient. It is filed as physicochemical. Particulars: 1-octanol / PBS pH 7.4.
Data set [5] in a line: Dynamic PET scan over 60 min, time activity curves. Particulars: male C57Bl6/J mice. The class given is in vivo.
Data set [6] has as its system GR. In words: Immunoblot of GR in tissues of JG231 treated mice. The class given is in vivo. As to conditions: JG231 4 mg/kg/day for 3 days intraperitoneally. In general terms: A western blot detects proteins with antibodies after separation by electrophoresis.
Data set [7] relates to prostate cancer mouse models. As to conditions: cited from earlier work.
The next data set has as its system GR in MCF7. In words: Immunoblot of GR in MCF7 cells treated with JG231. It is filed as cell-based, human. Particulars: 24 h.
The subject of a further data set is GR in MDA MB 231. In words: Immunoblot of GR in MDA MB 231 cells treated with JG231. Particulars: 24 h. It is filed as cell-based, human.
For data set [8], the system named is GR target genes (GILZ, FKBP5, Per1) in DU145 cells. Nature of the data set: Real time PCR of GR target genes in DU145 cells. Particulars: DU145 cells, dexamethasone 1 μM, 6 h exposure. The class given is cell-based, human. In general terms: Quantitative PCR measures a nucleic acid by following its amplification.

As to `COc1cccc2c1-c1ccc3c(c1C(Cc1ccc([18F])cc1)O2)C(C)=CC(C)(C)N3` (centres unmarked) [18F-YJH08, ^18F-5-(4-fluorobenzyl)-10-methoxy-2,2,4-trimethyl-2,5-dihydro-1H-chromeno[3,4-f]quinoline], at GR [1], the “uptake in fat depots of GR^fl/fl, Adipoq-Cre knockout mice” value is given as “significantly reduced”. In [2] (30 min after injection), the “uptake in adrenal gland” value is listed as 20.02 ± 2.21 % ID/g, the uptake in blood came out at 0.85 ± 0.1 % ID/g, the uptake in bone was 1.11 ± 0.15 % ID/g and the uptake in brain is recorded as 1.68 ± 0.14 % ID/g. Moreover, in [2] (30 min after injection), the uptake in heart turned out to be 3.04 ± 0.75 % ID/g, the uptake in kidney was 4.5 ± 0.5 % ID/g, the “uptake in large intestine” value was 1.33 ± 0.35 % ID/g and the uptake in liver was determined as 11.03 ± 0.89 % ID/g. In addition, in [2] (30 min after injection), the uptake in lung came out at 2.65 ± 0.19 % ID/g, the uptake in muscle came out at 1.49 ± 0.2 % ID/g, the uptake in pancreas came to 4.5 ± 0.15 % ID/g and the “uptake in small intestine” value is on record as 19.05 ± 3.27 % ID/g. Further, in [2] (30 min after injection), the uptake in spleen was 1.59 ± 0.13 % ID/g, the uptake in stomach is 1.88 ± 0.96 % ID/g and the “uptake in supraspinal BAT” value is 14.41 ± 3.42 % ID/g. Also, in data set [2] (60 min after injection), the “uptake in adrenal gland” value is 9.43 ± 0.08 % ID/g, the uptake in blood was 0.57 ± 0.02 % ID/g, the uptake in bone turned out to be 0.61 ± 0.15 % ID/g and the uptake in brain is recorded as 1.33 ± 0.06 % ID/g. For the same compound, in [2] (60 min after injection), the uptake in heart is 1.33 ± 0.21 % ID/g, the uptake in kidney is given as 2.35 ± 0.34 % ID/g, the “uptake in large intestine” value is listed as 1.23 ± 0.43 % ID/g and the uptake in liver is given as 7.7 ± 0.69 % ID/g. Also, in data set [2] (60 min after injection), the uptake in lung is recorded as 2.02 ± 0.29 % ID/g, the uptake in muscle is reported as 1.15 ± 0.03 % ID/g, the uptake in pancreas turned out to be 2.63 ± 0.05 % ID/g and the “uptake in small intestine” value stood at 8.61 ± 2.68 % ID/g. Also, in data set [2] (60 min after injection), the uptake in spleen was 0.83 ± 0.02 % ID/g, the uptake in stomach was 1.63 ± 0.92 % ID/g and the “uptake in supraspinal BAT” value worked out at 16.4 ± 4.93 % ID/g. In addition, in data set [2] (90 min after injection), the “uptake in adrenal gland” value turned out to be 5.72 ± 2.32 % ID/g, the uptake in blood amounted to 0.49 ± 0.06 % ID/g, the uptake in bone is listed as 0.58 ± 0.16 % ID/g and the uptake in brain is 0.97 ± 0.03 % ID/g. Besides, in [2] (90 min after injection), the uptake in heart stood at 0.92 ± 0.14 % ID/g, the uptake in kidney is reported as 1.86 ± 0.26 % ID/g, the “uptake in large intestine” value is listed as 6.67 ± 4.73 % ID/g and the uptake in liver is given as 8.43 ± 1.38 % ID/g. Further, in data set [2] (90 min after injection), the uptake in lung is given as 1.39 ± 0.1 % ID/g, the uptake in muscle is reported as 0.85 ± 0.18 % ID/g, the uptake in pancreas is 1.9 ± 0.41 % ID/g and the “uptake in small intestine” value is listed as 7.67 ± 2.34 % ID/g. For the same compound, in data set [2] (90 min after injection), the uptake in spleen is listed as 0.74 ± 0.15 % ID/g, the uptake in stomach came to 2.61 ± 1.54 % ID/g and the “uptake in supraspinal BAT” value is listed as 14.58 ± 1.91 % ID/g. Besides, on GR [3], the “tissue uptake in adx mice compared to intact mice” value was “higher”. Further, the “partition coefficient (log P)” value in data set [4] is 2.78. Besides, the mechanism of clearance entry in data set [5] (liver uptake and washout) is reported as “hepatobiliary”. For the same compound, the “radiotracer uptake in the bone (stability to radiodefluorination)” value in data set [5] was “low and approximately equivalent to muscle”.

As for `CCn1c(=O)/c(=C2\Sc3cc(Cl)ccc3N2C)s/c1=C\c1scc[n+]1Cc1ccc(Br)s1.[Cl-]` [JG231], in the data set with GR [6], the “change in GR levels in kidneys, liver, and muscle” value is on record as “no change”; the “reduction in GR expression levels in brown fat” value is ~ 50%. Moreover, the antitumor activity entry in data set [7] was “antitumor activity”. Moreover, the “GR degradation (immunoblot)” value in the data set with GR in MCF7 is “degrades GR”. Further, the “GR degradation (immunoblot)” value with GR in MDA MB 231 was “degrades GR”.

As for `C[C@@H]1C[C@H]2[C@@H]3CCC4=CC(=O)C=C[C@]4(C)[C@@]3(F)[C@@H](O)C[C@]2(C)[C@@]1(O)C(=O)CO` [dexamethasone, reference compound], in [8], the “induction of Per1” value was “induced”.

These data come from PMC8031368 (ACS chemical biology, 2020).
